A short description of the data set: Microsomal stability assay. The class given is in vitro ADME. Conditions: human liver microsomes. As for the experimental part: A microsomal stability assay was performed according to an internal standard procedure. Positive control compound diclofenac and three test items were freshly prepared as sub-dilutions in phosphate buffer (100 mM, pH 7.4) at concentrations of 200 μM and 20 μM, respectively. All incubations were conducted in triplicate in glass screw neck vials (1.5 mL, flat bottom, Macherey-Nagel, Düren, Germany) on a Thermomixer C (Eppendorf, Germany) at 37° C. and 1500 rpm. The incubation mixtures contained 270 μL human liver microsomes (HLM, 1.1 mg·mL^−1, UltraPool HLM 150, Corning B.V. Life Science, Amsterdam, the Netherlands), 270 μL NADP regeneration mix (1 mM NADP, 5 mM glucose-6-phosphate, 5 units·mL^−1 glucose-6-phosphate dehydrogenase and 5 mM MgCl2) and 30 μL phosphate buffer to reach a total volume of 570 μL. Negative controls were performed with heat inactivated (80° C., 30 min) HLM solution. Reactions were initiated by addition of diclofenac or the test item solution (30 μL). Aliquots of 100 μL were taken at 1, 15, 30, 60, and 90 minutes and immediately processed with 100 μL acetonitrile at 4° C. to terminate the reactions, and shaken for 2 minutes at 4° C. with 1600 rpm. The mixed samples were further transferred to 15 mm glass inserts (0.2 mL/6×31 mm, Macherey-Nagel, Düren, Germany) fitted in glass screw neck vials, and centrifuged for 15 min at 4° C. with 4000 rpm. The supernatants were withdrawn and subjected to high resolution mass spectrometry analysis without further treatment.
Samples were analyzed using a Vanquish Horizon UHPLC system (Thermo Fisher Scientific, Bremen, Germany) coupled to a Thermo Scientific QExactive HF-X Orbitrap mass spectrometer (Thermo Fisher Scientific, Bremen, Germany) using a UPLC column (ACQUITY HSS T3, Waters, 1.8 μm particle size, 2.1×50 mm dimensions). The column temperature was maintained at 25° C., and the samples were kept at 4° C. […]
Microsomal stability was determined in analogy to the method as described above, but as single determinations (FIG. 18).
On the technique in general: Liver microsomes are vesicles of endoplasmic reticulum, rich in cytochrome P450 enzymes.

“Also recorded” adds a separate entry of the source.

Turning to `O=C(OCc1cc(C(F)(F)F)cc(C(F)(F)F)c1)N1CCN(CCS(=O)(=O)c2ccc3nn[nH]c3c2)CC1` [MJK2134025, 3,5-bis(trifluoromethyl)benzyl 4-(2-((1H-benzo[d][1,2,3]triazol-6-yl)sulfonyl)ethyl)piperazine-1-carboxylate], the “microsomal stability / metabolism (in words)” value was “almost equally metabolically stable and superior to all other compounds tested; also recorded: favorable decay time course”.

Values taken from patent publication US20240391903A1, “AUTOTAXIN-INHIBITORS” (UNIVERSITAET MUENSTER, priority 2021, published 2024).
